Legend:
Beta-secretase 1 [1] = biological target: T1, Beta-secretase 1 (Homo sapiens, UniProt P56817); assay: Inhibition of human BACE-1 preincubated for 1 hr followed by substrate addition measured after 60 mins by FRET assay
[2] = Drug uptake in CD16 mouse brain at 3 mg/kg, po after 30 mins by LC-MS/MS analysis; assay type: ADME, organism-based; conditions: read-out: Drug uptake
[3] = biological target: Glycogen synthase kinase-3 beta (Homo sapiens, UniProt P49841); assay: Inhibition of recombinant human GSK3beta using prephosphorylated polypeptide as substrate preincubated for 30 mins followed by addition of kinase-glo stop solution measured after 10 mins by Kinase-Glo luminescence assay
Glycogen synthase kinase-3 beta, sequence (P49841 whole entry): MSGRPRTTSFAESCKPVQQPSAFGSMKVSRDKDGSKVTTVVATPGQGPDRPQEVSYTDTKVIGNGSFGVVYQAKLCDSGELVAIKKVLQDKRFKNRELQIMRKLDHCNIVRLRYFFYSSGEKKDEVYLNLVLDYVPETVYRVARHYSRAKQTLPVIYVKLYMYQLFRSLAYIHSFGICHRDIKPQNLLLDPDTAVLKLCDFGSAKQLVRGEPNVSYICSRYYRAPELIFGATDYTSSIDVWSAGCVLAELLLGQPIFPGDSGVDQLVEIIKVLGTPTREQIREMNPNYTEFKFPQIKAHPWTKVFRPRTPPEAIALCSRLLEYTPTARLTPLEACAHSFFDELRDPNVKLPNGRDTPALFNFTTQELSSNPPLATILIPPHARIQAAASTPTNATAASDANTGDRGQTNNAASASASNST

[4] = Oral bioavailability in CD16 mouse at 10 mg/kg; assay type: ADME, organism-based; conditions: in vivo
Beta-secretase 1 [5] = biological target: T1, Beta-secretase 1
Description: Inhibition of BACE-1 (unknown origin) using APP derived polypeptide harboring Lys-Met/Asn-Leu mutation as substrate by FRET assay

Beta-secretase 1 [6] = biological target: T1, Beta-secretase 1; assay: Inhibition of BACE-1 (unknown origin)

T1 sequence (P56817 whole entry): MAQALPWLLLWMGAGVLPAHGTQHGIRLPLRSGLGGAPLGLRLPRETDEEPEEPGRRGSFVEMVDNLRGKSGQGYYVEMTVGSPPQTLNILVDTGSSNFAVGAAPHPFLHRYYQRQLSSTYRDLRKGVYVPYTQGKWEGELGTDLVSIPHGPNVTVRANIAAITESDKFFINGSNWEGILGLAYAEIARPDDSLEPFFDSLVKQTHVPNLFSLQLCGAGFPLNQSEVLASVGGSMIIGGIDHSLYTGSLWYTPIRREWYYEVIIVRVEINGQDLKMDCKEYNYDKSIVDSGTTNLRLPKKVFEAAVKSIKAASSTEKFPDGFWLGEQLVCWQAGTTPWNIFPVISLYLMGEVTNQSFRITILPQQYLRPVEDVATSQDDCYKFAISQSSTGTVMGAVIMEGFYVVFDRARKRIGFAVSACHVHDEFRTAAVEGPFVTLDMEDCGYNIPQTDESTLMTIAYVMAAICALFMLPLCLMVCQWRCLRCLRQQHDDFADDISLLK

O=C1CSC2(CCN(CCCN3c4ccccc4Sc4ccc(Cl)cc43)CC2)N1 [SPICLOMAZINE]
IC50 (Beta-secretase 1 [1]): 6.6 µM

CC1Cc2ccc(OC(=O)c3ccc(NC(=N)N)cc3)cc2OC1=O (stereo not drawn)
IC50 (Beta-secretase 1 [1]): 1.5 µM

NC1=NC(c2ccc(F)cc2)NC(=O)N1 (stereo not drawn)
concentration at 0.5 h [2]: 620 nM
IC50 [3]: 14.7 µM
bioavailability [4]: 66%

CC#Cc1cncc(-c2ccc3c(c2)[C@]2(CO3)N=C(N)C[C@@H]2C(F)(F)F)c1
IC50 (Beta-secretase 1 [5]): 0.115 µM

OC1=C2Nc3ccccc3N=C2OC1c1c[nH]c2ccc(COc3ccccc3)cc12 (stereo not drawn)
IC50 (Beta-secretase 1 [1]): 1.8 µM

O=C1NC(=O)C2C=CNC2N1 (stereo not drawn)
IC50 (Beta-secretase 1 [6]): 30.3 µM

— ChEMBL document CHEMBL4024743, “BACE-1 Inhibitors: From Recent Single-Target Molecules to Multitarget Compounds for Alzheimer's Disease” (J Med Chem, 2018)
